The record followed here is patent publication US20210260142A1, “COMPOSITIONS BASED ON DIETARY FIBERS AND ESSENTIAL OILS” (Ralco Nutrition, Inc., priority 2020, published 2021).

One test has as its system Eimeria maxima. The test can be described thus: Anticoccidial efficacy battery-cage study, E. maxima lesions and oocysts.
A further test has as its system Eimeria acervulina. The test can be described thus: Anticoccidial efficacy battery-cage study, E. acervulina lesions and oocysts.
A further test has as its system Eimeria tenella. The test can be described thus: Anticoccidial efficacy battery-cage study, E. tenella lesions and oocysts.
The nature of test [1]: 3-Oil screening trial, 35 days, cocci stress. The test is classed as in vivo, Cobb 500 cockerels. As to conditions: product in feed. From the text: 640 1-day-old Cobb 500 cockerels were wing banded, weighed and randomly assigned to pens on the day of delivery. Each pen was 3 feet wide by 2 feet long by 2 feet tall holding 10 birds each; density was 0.6 sq. ft. per bird. The pens were contained within two battery cages in a single barn, each with battery cage having 4 levels and 8 pens per level for a total of 32 pens per battery. The experimental period was 35 days divided into three (3) feeding stages, starter, grower and finisher. Bird weight, average daily gain (ADG), average daily feed intake (ADFI), feed to gain (FG) and Coccidiosis oocyte counts were determined at each period. This study was performed with a large number of treatments in order to screen a number of possible treatments for further future investigations. […]

[2] abbreviates: Day 20, Johnson and Reid 1970 scoring, five birds per cage.

The structures appear in SMILES notation.

For the compound `CC[C@@H](C(=O)[C@@H](C)[C@@H](O)[C@H](C)[C@@H]1O[C@@H]([C@@H](CC)C(=O)O)CC[C@@H]1C)[C@H]1O[C@]2(C=C[C@@H](O)[C@]3(CC[C@@](C)([C@H]4CC[C@](O)(CC)[C@H](C)O4)O3)O2)[C@H](C)C[C@@H]1C` [Salinomycin], in the test with Eimeria maxima (setting [2]), the “Lesion Scores Eimeria maxima” value is 0.7 days. Further, the “Oocysts/Gram Eimeria maxima” value in the test with Eimeria maxima (feces Day 19 to Day 20) is reported as 212bc Oocysts/Gram. The “Lesion Scores Eimeria acervulina” value in the test with Eimeria acervulina (setting [2]) was 0.8 days. In addition, the “Oocysts/Gram Eimeria acervulina” value in the test on Eimeria acervulina (feces Day 19 to Day 20) amounted to 18403cd Oocysts/Gram. The “Lesion Scores Eimeria tenella” value in the test on Eimeria tenella (setting [2]) was determined as 0.9b. In the test with Eimeria tenella (feces Day 19 to Day 20), the “Oocysts/Gram Eimeria tenella” value is 1843bc Oocysts/Gram.
For the compound `O=CC=Cc1ccccc1` [cinnamaldehyde], the “Average bird weights at thirty-five (35) days” value in test [1] is listed as 2180.2 grams.
